According to patent US9409882B2, “Pyridine derivatives” (Hoffmann-La Roche Inc., priority 2012, dated 2016):

Key:
human Cathepsin S = human Cathepsin S (Homo sapiens (Human), UniProt P25774); experiment: Cathepsin enzyme inhibition assay (fluorogenic peptide substrate), human Cat S; format: biochemical; settings: human Cat S 1 nM, substrate Z-Val-Val-Arg-AMC 20 μM, pH 6.5
Experimental: (§1) Cathepsin Enzyme Inhibition Assay
(§2) Enzyme activity is measured by observing the increase in fluorescence intensity caused by cleavage of a peptide substrate containing a fluorophore whose emission is quenched in the intact peptide.
(§3) Assay buffer: 100 mM potassium phosphate pH 6.5, EDTA-Na 5 mM, Triton X-100 0.001%, DTT 5 mM.
(§4) Enzymes (all at 1 nM): human and mouse Cathepsin S, Cat K, Cat B, Cat L.
(§5) Substrate (20 μM): Z-Val-Val-Arg-AMC, except for Cat K which uses Z-Leu-Arg-AMC (both from Bachem).
(§6) AMC=7-Amino-4-Methyl-Coumarin.
(§7) Excitation 360 nm, Emission 465 nm.
(§8) Enzyme is added to the substance dilutions in 96-well microtitre plates and the reaction is started with substrate. […] IC50 are calculated by standard methods.
(§9) Inhibition of human Cat S, mouse Cat S, human Cat K, human Cat B, human Cat L and mouse Cat L have been measured separately.

human Cat L = human Cat L (Homo sapiens (Human), UniProt P07711); experiment: Cathepsin enzyme inhibition assay (fluorogenic peptide substrate), human Cat L; format: biochemical; settings: human Cat L 1 nM, substrate Z-Val-Val-Arg-AMC 20 μM, pH 6.5
Experimental: as §1, §2, §3, §4, §5, §6, §7, §8, §9

Sequence of human Cat L (P07711 114-333): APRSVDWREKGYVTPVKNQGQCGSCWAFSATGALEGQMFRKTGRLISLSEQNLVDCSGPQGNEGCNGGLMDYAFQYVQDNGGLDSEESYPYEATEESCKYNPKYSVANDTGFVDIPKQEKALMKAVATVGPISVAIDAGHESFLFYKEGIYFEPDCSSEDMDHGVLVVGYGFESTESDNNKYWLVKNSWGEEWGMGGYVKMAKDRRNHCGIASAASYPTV
Sequence of human Cathepsin S (P25774 115-331): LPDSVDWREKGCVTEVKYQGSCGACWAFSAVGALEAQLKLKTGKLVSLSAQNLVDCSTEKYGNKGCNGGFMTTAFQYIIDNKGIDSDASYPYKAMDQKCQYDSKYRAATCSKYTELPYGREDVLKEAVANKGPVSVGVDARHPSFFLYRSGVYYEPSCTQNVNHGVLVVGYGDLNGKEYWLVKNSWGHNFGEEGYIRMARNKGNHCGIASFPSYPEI

Compound	IC50 (human Cathepsin S) [nM]	IC50 (human Cat L) [nM]
Cn1cc(-c2ccc(S(=O)(=O)[C@@H]3C[C@@H](C(=O)NC4(C#N)CC4)N(C(=O)C4(c5ncc(Cl)cc5F)CC4)C3)c(Cl)c2)cn1 [Example 33, (2S,4R)-1-[1-(5-Chloro-3-fluoro-pyridin-2-yl)-cyclopropanecarbonyl]-4-[2-chloro-4-(1-methyl-1H-pyrazol-4-yl)-benzenesulfonyl]-pyrrolidine-2-carboxylic acid (1-cyano-cyclopropyl)-amide]	0.375	28.7
C[C@H](Oc1ccc(S(=O)(=O)[C@@H]2C[C@@H](C(=O)NC3(C#N)CC3)N(C(=O)C3(c4ncc(Cl)cc4F)CC3)C2)c(Cl)c1)C(F)(F)F [Example 27, (2S,4R)-1-(1-(5-chloro-3-fluoropyridin-2-yl)cyclopropanecarbonyl)-4-(2-chloro-4-((S)-1,1,1-trifluoropropan-2-yloxy)phenylsulfonyl)-N-(1-cyanocyclopropyl)pyrrolidine-2-carboxamide]	1.6	90
N#CC1(NC(=O)[C@@H]2C[C@@H](S(=O)(=O)c3ccccc3-n3cncn3)CN2C(=O)C2(c3ncc(I)cc3F)CC2)CC1 [Example 45, (2S,4R)-1-[1-(3-Fluoro-5-iodo-pyridin-2-yl)-cyclopropanecarbonyl]-4-(2-[1,2,4]triazol-1-yl-benzenesulfonyl)-pyrrolidine-2-carboxylic acid (1-cyano-cyclopropyl)-amide]	327	28400
Cc1cc(-c2ccc(S(=O)(=O)[C@@H]3C[C@@H](C(=O)NC4(C#N)CC4)N(C(=O)C4(c5ncc(Cl)cc5F)CC4)C3)c(Cl)c2)ccn1 [Example 31, (2S,4R)-1-(1-(5-chloro-3-fluoropyridin-2-yl)cyclopropanecarbonyl)-4-(2-chloro-4-(2-methylpyridin-4-yl)phenylsulfonyl)-N-(1-cyanocyclopropyl)pyrrolidine-2-carboxamide]	0.505	61.6
N#CC1(NC(=O)[C@@H]2C[C@@H](S(=O)(=O)c3ccccc3-n3ccnn3)CN2C(=O)C2(c3ncc(Cl)cc3F)CC2)CC1 [Example 47, (2S,4R)-1-[1-(5-Chloro-3-fluoro-pyridin-2-yl)-cyclopropanecarbonyl]-4-(2-[1,2,3]triazol-1-yl-benzenesulfonyl)-pyrrolidine-2-carboxylic acid (1-cyano-cyclopropyl)-amide]	4.27	35200
N#CC1(NC(=O)[C@@H]2C[C@@H](S(=O)(=O)c3ccc(OCC(F)(F)F)cc3Cl)CN2C(=O)C2(c3ncc(Cl)cc3F)CC2)CC1 [Example 6, (2S,4R)-1-[1-(5-Chloro-3-fluoro-pyridin-2-yl)-cyclopropanecarbonyl]-4-[2-chloro-4-(2,2,2-trifluoro-ethoxy)-benzenesulfonyl]-pyrrolidine-2-carboxylic acid (1-cyano-cyclopropyl)-amide]	0.675	44.5
N#CC1(NC(=O)[C@@H]2C[C@@H](Sc3cccc(-c4ccc(F)cc4)c3)CN2C(=O)C2(c3ncc(Cl)cc3F)CC2)CC1 [Example 9, (2S,4R)-1-[1-(5-Chloro-3-fluoro-pyridin-2-yl)-cyclopropanecarbonyl]-4-(4′-fluorobiphenyl-3-ylsulfanyl)-pyrrolidine-2-carboxylic acid (1-cyano-cyclopropyl)-amide]	11.8	416
N#CC1(NC(=O)[C@@H]2C[C@@H](Sc3ccccn3)CN2C(=O)C2(c3ncc(Cl)cc3F)CC2)CC1 [Example 12, (2S,4R)-1-[1-(5-Chloro-3-fluoro-pyridin-2-yl)-cyclopropanecarbonyl]-4-(pyridin-2-ylsulfanyl)-pyrrolidine-2-carboxylic acid (1-cyano-cyclopropyl)-amide]	594	8230
Cc1ncccc1-c1ccc(S(=O)(=O)[C@@H]2C[C@@H](C(=O)NC3(C#N)CC3)N(C(=O)C3(c4ncc(I)cc4F)CC3)C2)c(Cl)c1 [Example 36, (2S,4R)-4-[2-Chloro-4-(2-methyl-pyridin-3-yl)-benzenesulfonyl]-1-[1-(3-fluoro-5-iodo-pyridin-2-yl)-cyclopropanecarbonyl]-pyrrolidine-2-carboxylic acid (1-cyano-cyclopropyl)-amide]	0.382	9.8
N#CC1(NC(=O)[C@@H]2C[C@@H](S(=O)(=O)c3ccc(OCC(F)(F)F)cc3Cl)CN2C(=O)C2(c3ccc(Cl)cn3)CC2)CC1 [Example 3, (2S,4R)-1-[1-(5-Chloro-pyridin-2-yl)-cyclopropanecarbonyl]-4-[2-chloro-4-(2,2,2-trifluoro-ethoxy)-benzenesulfonyl]-pyrrolidine-2-carboxylic acid (1-cyano-cyclopropyl)-amide]	0.825	429
Cc1ncccc1-c1ccc(S(=O)(=O)[C@@H]2C[C@@H](C(=O)NC3(C#N)CC3)N(C(=O)C3(c4ncc(Cl)cc4F)CC3)C2)c(Cl)c1 [Example 34, (2S,4R)-1-[1-(5-Chloro-3-fluoro-pyridin-2-yl)-cyclopropanecarbonyl]-4-[2-chloro-4-(2-methyl-pyridin-3-yl)-benzenesulfonyl]-pyrrolidine-2-carboxylic acid (1-cyano-cyclopropyl)-amide]	0.322	64.2
Cn1cc(-c2ccc(S(=O)(=O)[C@@H]3C[C@@H](C(=O)NC4(C#N)CC4)N(C(=O)C4(c5ncc(Cl)cc5Cl)CC4)C3)c(Cl)c2)cn1 [Example 40, (2S,4R)-4-[2-Chloro-4-(1-methyl-1H-pyrazol-4-yl)-benzenesulfonyl]-1-[1-(3,5-dichloro-pyridin-2-yl)-cyclopropanecarbonyl]-pyrrolidine-2-carboxylic acid (1-cyano-cyclopropyl)-amide]	0.703	
N#CC1(NC(=O)[C@@H]2C[C@@H](S(=O)(=O)c3ccccc3Cl)CN2C(=O)C2(c3ncc(Cl)cc3F)CC2)CC1 [Example 5, (2S,4R)-4-(2-Chloro-benzenesulfonyl)-1-[1-(5-chloro-3-fluoro-pyridin-2-yl)-cyclopropanecarbonyl]-pyrrolidine-2-carboxylic acid (1-cyano-cyclopropyl)-amide]	0.398	12.9
N#CC1(NC(=O)[C@@H]2C[C@@H](Sc3ncccc3C(F)(F)F)CN2C(=O)C2(c3ncc(Cl)cc3F)CC2)CC1 [Example 21, (2S,4R)-1-[1-(5-Chloro-3-fluoro-pyridin-2-yl)-cyclopropanecarbonyl]-4-(3-trifluoromethyl-pyridin-2-ylsulfanyl)-pyrrolidine-2-carboxylic acid (1-cyano-cyclopropyl)-amide]	275	10000
N#CC1(NC(=O)[C@@H]2C[C@@H](S(=O)(=O)c3ncccc3C(F)(F)F)CN2C(=O)C2(c3ncc(Cl)cc3F)CC2)CC1 [Example 25, (2S,4R)-1-[1-(5-Chloro-3-fluoro-pyridin-2-yl)-cyclopropanecarbonyl]-4-(3-trifluoromethyl-pyridine-2-sulfonyl)-pyrrolidine-2-carboxylic acid (1-cyano-cyclopropyl)-amide]	3.21	13200
N#CC1(NC(=O)[C@@H]2C[C@@H](S(=O)(=O)c3ccc(Cl)cn3)CN2C(=O)C2(c3ncc(Cl)cc3F)CC2)CC1 [Example 22, (2S,4R)-1-[1-(5-Chloro-3-fluoro-pyridin-2-yl)-cyclopropanecarbonyl]-4-(5-chloropyridine-2-sulfonyl)-pyrrolidine-2-carboxylic acid (1-cyano-cyclopropyl)-amide]	3	1970
N#CC1(NC(=O)[C@@H]2C[C@@H](Sc3cc(C(F)(F)F)ccc3Cl)CN2C(=O)C2(c3ncc(Cl)cc3F)CC2)CC1 [Example 26, (2S,4R)-1-[1-(5-Chloro-3-fluoro-pyridin-2-yl)-cyclopropanecarbonyl]-4-(2-chloro-5-trifluoromethyl-phenylsulfanyl)-pyrrolidine-2-carboxylic acid (1-cyano-cyclopropyl)-amide]		52.4
N#CC1(NC(=O)[C@@H]2C[C@@H](S(=O)(=O)c3cccc(-c4ccc(F)cc4)c3)CN2C(=O)C2(c3ncc(Cl)cc3F)CC2)CC1 [Example 13, (2S,4R)-1-[1-(5-Chloro-3-fluoro-pyridin-2-yl)-cyclopropanecarbonyl]-4-(4′-fluorobiphenyl-3-sulfonyl)-pyrrolidine-2-carboxylic acid (1-cyano-cyclopropyl)-amide]		247
Cc1cccc(S[C@@H]2C[C@@H](C(=O)NC3(C#N)CC3)N(C(=O)C3(c4ncc(Cl)cc4F)CC3)C2)n1 [Example 19, (2S,4R)-1-[1-(5-Chloro-3-fluoro-pyridin-2-yl)-cyclopropanecarbonyl]-4-(6-methyl-pyridin-2-ylsulfanyl)-pyrrolidine-2-carboxylic acid (1-cyano-cyclopropyl)-amide]		4610
N#CC1(NC(=O)[C@@H]2C[C@@H](S(=O)(=O)c3ncccc3Cl)CN2C(=O)C2(c3ncc(Cl)cc3F)CC2)CC1 [Example 14, (2S,4R)-1-[1-(5-Chloro-3-fluoro-pyridin-2-yl)-cyclopropanecarbonyl]-4-(3-chloropyridine-2-sulfonyl)-pyrrolidine-2-carboxylic acid (1-cyano-cyclopropyl)-amide]		2120
N#CC1(NC(=O)[C@@H]2C[C@@H](Sc3ncccc3Cl)CN2C(=O)C2(c3ncc(Cl)cc3F)CC2)CC1 [Example 10, (2S,4R)-1-[1-(5-Chloro-3-fluoro-pyridin-2-yl)-cyclopropanecarbonyl]-4-(3-chloro-pyridin-2-ylsulfanyl)-pyrrolidine-2-carboxylic acid (1-cyano-cyclopropyl)-amide]	964	
